According to ChEMBL document CHEMBL4732128, “Methylsulfanylpyridine based diheteroaryl isocombretastatin analogs as potent anti-proliferative agents” (Eur J Med Chem, 2021):
≈ marks a conversion by molar mass, not a printed value.

Key:
HL-60 = assay: Antiproliferative activity against human HL-60 cells assessed as inhibition of cell growth after 72 hrs by XTT assay; format: functional, cell-based; details: HL-60, 72 h
HeLa = assay: Antiproliferative activity against human HeLa cells assessed as inhibition of cell growth after 72 hrs by XTT assay; format: functional, cell-based
HT-29 = assay: Antiproliferative activity against human HT-29 cells assessed as inhibition of cell growth after 72 hrs by XTT assay; format: functional, cell-based; details: HT-29, 72 h
[1] = Inhibition of bovine brain tubulin polymerization incubated for 30 mins by turbidimetric assay; format: tissue-based, Bos taurus
[2] = Aqueous solubility of the compound in pH 7.0 phosphate buffer at 2 mg incubated for 72 hrs by shake flask method; format: physicochemical

| SMILES | IC50 (HL-60) [nM] | IC50 (HeLa) [nM] | IC50 (HT-29) [nM] | IC50 [1] [nM] | solubility thermodynamic at 72 h [2] [µg/mL] |
| --- | --- | --- | --- | --- | --- |
| CSc1cc(C(=NO)c2ccc3ccccc3c2)cc(SC)n1 | ≥ 10 | ≥ 10 | ≥ 10 | > 5000 | – |
| C=C(c1cc(SC)nc(SC)c1)c1ccc2ccccc2c1 | ≥ 10 | ≥ 10 | ≥ 10 | > 5000 | 1.9 (≈ 5.87 µM) |
| CSc1cc(C(=NO)c2cccc(N(C)C)c2)cc(SC)n1 | ≥ 10 | ≥ 10 | ≥ 10 | > 5000 | 14.7 (≈ 44.1 µM) |
| CSc1cc(C(=O)c2ccc3ccccc3c2)cc(SC)n1 | ≥ 10 | ≥ 10 | ≥ 10 | > 5000 | – |
| CSc1cc(C(=NO)c2ccc3c(ccn3C)c2)cc(SC)n1 | 240 | 590 | 745 | 1000 | – |
| CSc1cc(C(=O)c2ccc(N(C)C)cc2)cc(SC)n1 | 435 | 652 | 787 | > 5000 | 1 (≈ 3.14 µM) |
| C=C(c1cc(SC)nc(SC)c1)c1ccc2c(c1)c(C(N)=O)cn2C | 223 | 601 | 276 | 2400 | – |
| CCOC(=O)C(O)(c1ccc(OC)cc1)c1cc(Cl)nc(SC)c1 (stereo unspecified) | ≥ 10 | ≥ 10 | ≥ 10 | > 5000 | – |
| CSc1cc(C(O)c2ccc(N(C)C)cc2)cc(SC)n1 (stereo unspecified) | ≥ 10 | ≥ 10 | ≥ 10 | > 5000 | – |
| C=C(c1cc(SC)nc(SC)c1)c1ccc2c(c1)c(C#N)cn2C | 604 | 579 | 587 | 400 | 46.3 (≈ 132 µM) |
| C=C(c1cc(Cl)nc(SC)c1)c1ccc2c(c1)c(C(=O)O)cn2C | ≥ 10 | ≥ 10 | ≥ 10 | > 5000 | – |
| CSc1cc(C(O)c2ccc3c(ccn3C)c2)cc(SC)n1 (stereo unspecified) | ≥ 10000 | ≥ 10000 | ≥ 10 | > 5000 | – |
| C=C(c1cccc(N(C)C)c1)c1cc(SC)nc(SC)c1 | ≥ 10 | ≥ 10 | ≥ 10 | > 5000 | 2.4 (≈ 7.58 µM) |
| COc1ccc(/C=C\c2cc(SC)nc(SC)c2)cc1 | ≥ 10 | ≥ 10 | ≥ 10 | 3800 | – |
| CSc1cc(C(=O)c2ccc3c(c2)c(C=O)cn3C)cc(Cl)n1 | ≥ 10 | ≥ 10 | ≥ 10 | > 5000 | – |
| COc1ccc(C(=O)c2cc(SC)nc(SC)c2)cc1 | ≥ 10000 | ≥ 10000 | ≥ 10000 | > 5000 | 1.5 (≈ 4.91 µM) |
| CSc1cc(C(O)c2ccc(N(C)C)nc2)cc(SC)n1 (stereo unspecified) | ≥ 10 | ≥ 10 | ≥ 10 | > 5000 | – |
| COc1ccc(/C=C\c2cc(OC)c(OC)c(OC)c2)cc1O [COMBRETASTATIN A4] | – | – | 305 | 2800 | – |
| C=C(c1cc(SC)nc(SC)c1)c1ccc2c(ccn2C)c1 | 717 | 520 | 249 | 1100 | – |
| COc1ccc(C(=O)c2cc(Cl)nc(SC)c2)cc1 | ≥ 10000 | ≥ 10000 | ≥ 10000 | > 5000 | – |
| CSc1cc(C(=O)c2ccc(N(C)C)nc2)cc(SC)n1 | ≥ 10 | ≥ 10 | ≥ 10 | > 5000 | 47.1 (≈ 147 µM) |
| C=C(c1ccc(OC)cc1)c1cc(Cl)nc(SC)c1 | 464 | 628 | 485 | 1500 | 48.9 (≈ 168 µM) |
| COc1ccc(C(C)c2cc(SC)nc(SC)c2)cc1 (stereo unspecified) | ≥ 10000 | ≥ 10000 | ≥ 10000 | > 5000 | – |
| C=C(c1cc(SC)nc(SC)c1)c1ccc2c(c1)c(C(=O)O)cn2C | ≥ 10 | ≥ 10 | ≥ 10 | 4700 | 103 (≈ 277 µM) |
| CSc1cc(C(=O)c2ccc3c(c2)c(C=O)cn3C)cc(SC)n1 | ≥ 10 | ≥ 10 | ≥ 10 | > 5000 | 230 (≈ 646 µM) |
| CSc1cc(/C=C\c2ccc3c(ccn3C)c2)cc(SC)n1 | ≥ 10 | ≥ 10 | 633 | > 5000 | – |
| CSc1cc(C(=O)c2cccc(N(C)C)c2)cc(SC)n1 | ≥ 10 | ≥ 10 | ≥ 10 | > 5000 | 1.3 (≈ 4.08 µM) |

More lines, in order of falling IC50 (HeLa), values ahead:

| IC50 (HL-60) [nM] | IC50 (HeLa) [nM] | IC50 (HT-29) [nM] | IC50 [1] [nM] | solubility thermodynamic at 72 h [2] [µg/mL] | SMILES |
| --- | --- | --- | --- | --- | --- |
| 613 | 518 | ≥ 10000 | 4600 | 41.7 (≈ 135 µM) | COc1ccc(C(=NO)c2cc(Cl)nc(SC)c2)cc1 |
| 299 | 457 | 292 | 3000 | – | COc1ccc(C(=NO)c2cc(SC)nc(SC)c2)cc1 |
| 306 | 399 | 550 | 2000 | 35.7 (≈ 118 µM) | C=C(c1ccc(OC)cc1)c1cc(SC)nc(SC)c1 |
| 490 | 388 | ≥ 10 | 2400 | – | CSc1cc(C(=O)c2ccc3c(ccn3C)c2)cc(Cl)n1 |
| – | 388 | 514 | 4000 | – | COc1ccc(S(=O)(=O)Nc2cccnc2Nc2ccc(O)cc2)cc1 [ABT-751] |
| 257 | 365 | ≥ 10 | > 5000 | 14.8 (≈ 44.6 µM) | CSc1cc(C(=NO)c2ccc3c(ccn3C)c2)cc(Cl)n1 |
| 486 | 328 | 928 | 3800 | 6.9 (≈ 21.8 µM) | C=C(c1ccc(N(C)C)cc1)c1cc(SC)nc(SC)c1 |
| 213 | 269 | 781 | 2100 | 1.1 (≈ 3.3 µM) | CSc1cc(C(=NO)c2ccc(N(C)C)cc2)cc(SC)n1 |
| 222 | 233 | 549 | 1700 | – | CSc1cc(C(=O)c2ccc3c(ccn3C)c2)cc(SC)n1 |
| 416 | 176 | 511 | 300 | 12.3 (≈ 39.1 µM) | C=C(c1cc(Cl)nc(SC)c1)c1ccc2c(ccn2C)c1 |
| 74 | 158 | 278 | 600 | 3.2 (≈ 9.42 µM) | C=C(c1cc(Cl)nc(SC)c1)c1ccc2c(c1)c(C#N)cn2C |
| 44 | 82 | 38 | 2300 | – | C=C(c1cc(Cl)nc(SC)c1)c1ccc2c(c1)c(C(N)=O)cn2C |
| 303 | 64 | 573 | 1200 | 7.6 (≈ 21.4 µM) | C=C(c1cc(SC)nc(SC)c1)c1ccc2c(c1)c(C=O)cn2C |
